Data taken from patent US20190203240A1, “METHODS FOR THE PRODUCTION OF RHAMNOSYLATED FLAVONOIDS” (Universitaet Hamburg, priority 2016, published 2019).

Key:
Assay type in all cases: cell-based
STAT3 = STAT3 activity in HeLa-STAT3-luc cells stimulated with IFN-γ (luciferase); details: +IFNγ 25 U/ml
Experimental: HeLa-STAT3-luc cells were stably transfected with the plasmid 4×M67 pTATA TK-Luc. Cells (20×10^3 cells/ml) were seeded 96-well plate the day before the assay. Then the cells were treated with the test substances for […] and then stimulated with IFN-γ 25 IU/ml. After 6 h, the cells were washed twice with PBS and lysed in […] lysis buffer containing 25 mM Tris-phosphate (pH 7.8), 8 mM MgCl2, 1 mM DTT, 1% Triton X-100, and 7% glycerol during […] at RT in a horizontal shaker. Luciferase activity was measured using GloMax 96 microplate luminometer (Promega) following the instructions of the luciferase assay kit (Promega, Madison, Wis., USA). […] The experiments for each concentration of the test items were done in triplicate wells.

NF-κB = NF-κB activity in NIH3T3-KBF-Luc cells stimulated with TNFα (luciferase); details: +30 ng/ml TNFα
Experimental: NIH3T3-KBF-Luc cells were stably transfected with the KBF-Luc plasmid (Sancho (2003) Mol Pharmacol 63:429-438), which contains three copies of NF-κB binding site (from major histocompatibility complex promoter), fused to a minimal simian virus 40 promoter driving the luciferase gene. Cells (1×10^4 for NIH3T3-KBF-Luc) were seeded the day before the assay on 96-well plate. Then the cells were treated with the test substances for 15 min and then stimulated with 30 ng/ml of TNFα. After 6 h, the cells were washed twice with PBS and lysed in 50 μl lysis buffer containing 25 mM Tris-phosphate (pH 7.8), 8 mM MgCl2, 1 mM DTT, 1% Triton X-100, and 7% glycerol during 15 min at RT in a horizontal shaker. Luciferase activity was measured using a GloMax 96 microplate luminometer (Promega) following the instructions of the luciferase assay kit (Promega, Madison, Wis., USA). […] The experiments for each concentration of the test items were done in triplicate wells.

HaCaT cells = assay: Glucose uptake (2-NBDG) in HaCaT keratinocytes; details: +2NBDG 50 μM, 24 h
Experimental: HaCaT cells (5×10^4) were seeded in 96-well black plates and incubated for 24 h. Then, medium was removed and the cells cultivated in OptiMEM, labeled with 50 μM 2-NBDG (2-[N-(7-nitrobenz-2-oxa-1,3-diazol-4-yl) amino]-2-deoxy-D-glucose and treated with the test substances or the positive control, Rosiglitazone, for 24 h. Medium was removed and the wells were carefully washed with PBS and incubated in PBS (100 μl/well). Finally the fluorescence was measured using the Incucyte FLR software, the data were analyzed by the total green object integrated intensity (GCU×μm2×Well) of the imaging system IncuCyte HD (Essen BioScience). The fluorescence of Rosiglitazone is taken as 100% of glucose uptake, and the glucose uptake was calculated as (% Glucose uptake)=100(T−B)/(R−B), where T (treated) is the fluorescence of test substance-treated cells, B (Basal) is the fluorescence of 2-NBDG cells and […] is the fluorescence of cells treated with Rosiglitazone.

Structure (SMILES) | % Activation (STAT3; IFNγ = 100%) (STAT3; 25 μM) [%] | RLU 1 (STAT3; 25 μM) [RLU] | RLU 2 (STAT3; 25 μM) [RLU] | RLU 3 (STAT3; 25 μM) [RLU] | RLU MEAN (STAT3; 25 μM) [RLU] | RLU specific (STAT3; 25 μM) [RLU] | RLU 1 (STAT3; 50 μM) [RLU] | RLU 2 (STAT3; 50 μM) [RLU] | RLU 3 (STAT3; 50 μM) [RLU] | RLU MEAN (STAT3; 50 μM) [RLU] | RLU specific (STAT3; 50 μM) [RLU] | % Activation (NF-κB; TNFα = 100%) (NF-κB; 10 μM) [%] | RLU 1 (NF-κB; 10 μM) [RLU] | RLU 2 (NF-κB; 10 μM) [RLU] | RLU 3 (NF-κB; 10 μM) [RLU] | RLU MEAN (NF-κB; 10 μM) [RLU] | RLU specific (NF-κB; 10 μM) [RLU] | % Activation (NF-κB; TNFα = 100%) (NF-κB; 25 μM) [%] | RLU 1 (NF-κB; 25 μM) [RLU] | RLU 2 (NF-κB; 25 μM) [RLU] | further results
O=c1cc(-c2ccccc2)oc2cc(O)cc(O)c12 [Chrysin] | 164.78 | 28031 | 22367 | 17504 | 22634 | 20627 | 27912 | 3531 | 16304 | 15916 | 13908 | 313.0 | 301630 | 274240 | 303950 | 293273 | 256010 | 293.5 | 273410 | 272580 | % Activation (STAT3; IFNγ = 100%) (STAT3; 50 μM): 111.11%; RLU 3 (NF-κB; 25 μM): 285980 RLU; RLU MEAN (NF-κB; 25 μM): 277323 RLU; RLU specific (NF-κB; 25 μM): 240060 RLU
COc1ccc(-c2coc3cc(O[C@@H]4O[C@@H](C)[C@H](O)[C@@H](O)[C@H]4O)cc(O[C@@H]4O[C@@H](C)[C@H](O)[C@@H](O)[C@H]4O)c3c2=O)cc1 [BR1, Biochanin A-5,7-di-O-α-L-rhamnoside] | 110.41 | 8162 | 12819 | 11157 | 10713 | 8878 | 12336 | 11620 | 12104 | 12020 | 10185 | 170.3 | 259120 | 247590 | 229500 | 245403 | 222040 | 141.4 | 211660 | 208010 | % Activation (STAT3; IFNγ = 100%) (STAT3; 50 μM): 126.67%; RLU 3 (NF-κB; 25 μM): 203720 RLU; RLU MEAN (NF-κB; 25 μM): 207797 RLU; RLU specific (NF-κB; 25 μM): 184433 RLU; % Glucose uptake (Rosiglitazone = 100%) (HaCaT cells; 25 μM): 44.0%; Mean (fluorescence) (HaCaT cells; 25 μM): 597246; Measure 1 (fluorescence) (HaCaT cells; 25 μM): 730362; Measure 2 (fluorescence) (HaCaT cells; 25 μM): 661244; Measure 3 (fluorescence) (HaCaT cells; 25 μM): 400131; RFU specific (HaCaT cells; 25 μM): 564160 RFU; % Glucose uptake (Rosiglitazone = 100%) (HaCaT cells; 50 μM): 56.4%; Mean (fluorescence) (HaCaT cells; 50 μM): 756509; Measure 1 (fluorescence) (HaCaT cells; 50 μM): 899548; Measure 2 (fluorescence) (HaCaT cells; 50 μM): 626443; Measure 3 (fluorescence) (HaCaT cells; 50 μM): 743535; RFU specific (HaCaT cells; 50 μM): 723423 RFU
COc1ccc(-c2cc(=O)c3c(O)cc(O)cc3o2)cc1O [Diosmetin] | 111.00 | 16337 | 14303 | 17066 | 15902 | 13895 | 9189 | 7751 | 7857 | 8266 | 6258 | 294.7 | 398660 | 411390 | 412940 | 407663 | 384300 | 327.9 | 448530 | 452660 | activity at 50 µM (STAT3; 6 h, 50 μM, read-out: % Activation (STAT3; IFNγ = 100%)): 50%; RLU 3 (NF-κB; 25 μM): 451610 RLU; RLU MEAN (NF-κB; 25 μM): 450933 RLU; RLU specific (NF-κB; 25 μM): 427570 RLU
